Assay results published in PubChem BioAssay AID192 (DTP/NCI, 2004).
“And” between values parts separate entries of the source, which are not always exact repeats. Identical values can stand only once. Inconclusive results and toxic doses are left out.

Tested on: BDF1 mice, B16 melanoma ip, median survival T/C
Assay: NCI In Vivo Anticancer Drug Screen. Data for tumor model B16 Melanoma (intraperitoneal) in B6D2F1 (BDF1) mice
Settings: endpoint: median survival time, higher = longer survival
Procedure, shortened: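 Antitumor activity is assessed in mice bearing a transplanted tumor, with survival or tumor size compared against vehicle-dosed controls and expressed as T/C.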

[1] = dose: 12.5 mg/kg/injection, schedule: Q01DX009 (ip), vehicle: saline
[2] = dose: 32.0 mg/kg/injection, schedule: Q01DX009 (ip), vehicle: saline with Tween-80
[3] = dose: 100.0 mg/kg/injection, schedule: Q01DX009 (ip), vehicle: saline
[4] = dose: 200.0 mg/kg/injection, schedule: Q01DX009 (ip), vehicle: saline
[5] = dose: 6.25 mg/kg/injection, schedule: Q01DX009 (ip), vehicle: saline
[6] = dose: 25.0 mg/kg/injection, schedule: Q01DX009 (ip), vehicle: saline
[7] = dose: 100.0 mg/kg/injection, schedule: Q01DX009 (ip), vehicle: Klucel (hydroxypropylcellulose) (HPC)
[8] = dose: 200.0 mg/kg/injection, schedule: Q01DX009 (ip), vehicle: Klucel (hydroxypropylcellulose) (HPC)
[9] = dose: 400.0 mg/kg/injection, schedule: Q01DX009 (ip), vehicle: Klucel (hydroxypropylcellulose) (HPC)

With `Cc1cn(C2CC(O)C(CO)O2)c(=O)[nH]c1=O` (stereo unspecified) the T/C [1] was 88 % of control, the T/C [2] was 111 % of control and the T/C (dose: 32.0 mg/kg/injection, schedule: Q01DX009 (ip), vehicle: saline) was 95 % of control and 108 % of control. The T/C (dose: 50.0 mg/kg/injection, schedule: Q03HX032 (ip), vehicle: saline) was 105 % of control, the T/C (dose: 64.0 mg/kg/injection, schedule: Q01DX009 (ip), vehicle: saline with Tween-80) was 120 % of control and the T/C (dose: 64.0 mg/kg/injection, schedule: Q01DX009 (ip), vehicle: saline) was 100 % of control and 101 % of control. The T/C [3] was 103 % of control, the T/C (dose: 100.0 mg/kg/injection, schedule: Q03HX032 (ip), vehicle: saline) was 97 % of control and the T/C (dose: 128.0 mg/kg/injection, schedule: Q01DX009 (ip), vehicle: saline with Tween-80) was 120 % of control. For the same compound, the T/C (dose: 128.0 mg/kg/injection, schedule: Q01DX009 (ip), vehicle: saline) was 98 % of control and 103 % of control, the T/C (dose: 150.0 mg/kg/injection, schedule: Q02HX012 (ip), vehicle: saline) was 103 % of control and the T/C [4] was 89 % of control. The T/C (dose: 200.0 mg/kg/injection, schedule: Q02HX012 (ip), vehicle: saline) was 102 % of control, the T/C (dose: 200.0 mg/kg/injection, schedule: Q03HX032 (ip), vehicle: saline) was 89 % of control and the T/C (dose: 256.0 mg/kg/injection, schedule: Q01DX009 (ip), vehicle: saline with Tween-80) was 120 % of control. For the same compound, the T/C (dose: 256.0 mg/kg/injection, schedule: Q01DX009 (ip), vehicle: saline) was 96 % of control and 102 % of control, the T/C (dose: 300.0 mg/kg/injection, schedule: Q02HX012 (ip), vehicle: saline) was 102 % of control and the T/C (dose: 400.0 mg/kg/injection, schedule: Q02HX012 (ip), vehicle: saline) was 102 % of control. The T/C (dose: 400.0 mg/kg/injection, schedule: Q03HX032 (ip), vehicle: saline) was 92 % of control, the T/C (dose: 512.0 mg/kg/injection, schedule: Q01DX009 (ip), vehicle: saline with Tween-80) was 91 % of control and the T/C (dose: 512.0 mg/kg/injection, schedule: Q01DX009 (ip), vehicle: saline) was 104 % of control and 107 % of control. For the same compound, the T/C (dose: 600.0 mg/kg/injection, schedule: Q02HX012 (ip), vehicle: saline) was 97 % of control.

`CC1(C)N=C(N)N=C(N)N1c1cccc(CCCCOc2ccccc2)c1` was tested, and the T/C (dose: 3.13 mg/kg/injection, schedule: Q01DX009 (ip), vehicle: saline with Tween-80) was 95 % of control, the T/C (dose: 3.13 mg/kg/injection, schedule: Q04DX003 (ip), vehicle: saline with Tween-80) was 109 % of control and the T/C (dose: 6.25 mg/kg/injection, schedule: Q01DX009 (ip), vehicle: saline with Tween-80) was 102 % of control. The T/C (dose: 6.25 mg/kg/injection, schedule: Q04DX003 (ip), vehicle: saline with Tween-80) was 109 % of control, the T/C (dose: 12.5 mg/kg/injection, schedule: Q01DX009 (ip), vehicle: saline with Tween-80) was 102 % of control and the T/C (dose: 12.5 mg/kg/injection, schedule: Q04DX003 (ip), vehicle: saline with Tween-80) was 107 % of control.

In the case of `O=c1[nH]c(/C=C/c2ccc(Cl)cc2)nc(O)c1-c1ccc(Cl)cc1`, the T/C (dose: 75.0 mg/kg/injection, schedule: Q04DX003 (ip), vehicle: Klucel (hydroxypropylcellulose) (HPC)) was 110 % of control, the T/C (dose: 150.0 mg/kg/injection, schedule: Q04DX003 (ip), vehicle: Klucel (hydroxypropylcellulose) (HPC)) was 100 % of control and the T/C (dose: 300.0 mg/kg/injection, schedule: Q04DX003 (ip), vehicle: Klucel (hydroxypropylcellulose) (HPC)) was 87 % of control.

For `NC(=O)c1cc2c(N)[nH]nc2nc1N`, the T/C [5] was 106 % of control, the T/C [1] was 100 % of control and the T/C [6] was 95 % of control.

With `CNc1nc2c(N)ncnc2n1C1OC(CO)C(O)C1O` (stereo unspecified) the T/C (dose: 1.56 mg/kg/injection, schedule: Q01DX009 (ip), vehicle: saline) was 94 % of control, the T/C (dose: 3.12 mg/kg/injection, schedule: Q01DX009 (ip), vehicle: saline) was 90 % of control and the T/C [5] was 95 % of control. The T/C [1] was 101 % of control and the T/C [6] was 101 % of control.

In the case of `CC(C(=O)O)C(=O)O.[NH-]CC[NH-].[Pt+2]`, the T/C (dose: 3.12 mg/kg/injection, schedule: Q01DX009 (ip), vehicle: water) was 150 % of control, the T/C (dose: 6.25 mg/kg/injection, schedule: Q01DX009 (ip), vehicle: water) was 162 % of control and the T/C (dose: 12.5 mg/kg/injection, schedule: Q01DX009 (ip), vehicle: water) was 179 % of control. For the same compound, the T/C (dose: 25.0 mg/kg/injection, schedule: Q01DX009 (ip), vehicle: water) was 211 % of control.

With `CC1=C(/C=C/C(C)=C/C=C/C(C)=C/CO)C(C)(C)CCC1` the T/C (dose: 4.0 mg/kg/injection, schedule: Q01DX009 (ip), vehicle: saline with Tween-80) was 90 % of control and 100 % of control, the T/C (dose: 8.0 mg/kg/injection, schedule: Q01DX009 (ip), vehicle: saline with Tween-80) was 99 % of control and 101 % of control and the T/C (dose: 16.0 mg/kg/injection, schedule: Q01DX009 (ip), vehicle: saline with Tween-80) was 97 % of control and 103 % of control. The T/C [2] was 90 % of control and 105 % of control.

`COc1ccc([C@@H]2c3cc4c(cc3C[C@H]3COC(=O)[C@@H]32)OCO4)cc1OC` was tested, and the T/C (dose: 11.0 mg/kg/injection, schedule: Q01DX009 (ip), vehicle: saline with Tween-80) was 124 % of control, the T/C (dose: 22.0 mg/kg/injection, schedule: Q01DX009 (ip), vehicle: saline with Tween-80) was 111 % of control and the T/C (dose: 33.0 mg/kg/injection, schedule: Q01DX009 (ip), vehicle: saline with Tween-80) was 124 % of control. For the same compound, the T/C (dose: 67.0 mg/kg/injection, schedule: Q01DX009 (ip), vehicle: saline with Tween-80) was 113 % of control.

For `CCCC[N+](CCCC)(CCCC)CCCC.Cc1ccc([SH2+])c([SH2+])c1.Cc1ccc([SH2+])c([SH2+])c1.[Fe+3]`, the T/C (dose: 25.0 mg/kg/injection, schedule: Q01DX009 (ip), vehicle: Klucel (hydroxypropylcellulose) (HPC)) was 93 % of control, the T/C (dose: 25.0 mg/kg/injection, schedule: Q01DX009 (ip), vehicle: saline with Tween-80) was 97 % of control and the T/C (dose: 50.0 mg/kg/injection, schedule: Q01DX009 (ip), vehicle: Klucel (hydroxypropylcellulose) (HPC)) was 99 % of control. For the same compound, the T/C (dose: 50.0 mg/kg/injection, schedule: Q01DX009 (ip), vehicle: saline with Tween-80) was 98 % of control, the T/C [7] was 93 % of control and the T/C (dose: 100.0 mg/kg/injection, schedule: Q01DX009 (ip), vehicle: saline with Tween-80) was 103 % of control. The T/C [8] was 93 % of control and the T/C (dose: 200.0 mg/kg/injection, schedule: Q01DX009 (ip), vehicle: saline with Tween-80) was 98 % of control.

For `COC(=O)C(CCCN=C(N)N)NC(=O)OCc1ccccc1` (stereo unspecified), the T/C (dose: 100.0 mg/kg/injection, schedule: Q04DX003 (ip), vehicle: saline) was 100 % of control and the T/C (dose: 200.0 mg/kg/injection, schedule: Q04DX003 (ip), vehicle: saline) was 95 % of control.

With `CCCCC(CC)CCC(O)CCC(CC)CC` (stereo unspecified) the T/C [7] was 90 % of control and the T/C [9] was 87 % of control.

In the case of `COC(=O)c1ccc(C(=O)OC)cc1`, the T/C (dose: 0.05 mg/kg/injection, schedule: Q04DX003 (ip), vehicle: water) was 103 % of control, the T/C (dose: 0.1 mg/kg/injection, schedule: Q04DX003 (ip), vehicle: water) was 96 % of control and the T/C (dose: 0.2 mg/kg/injection, schedule: Q04DX003 (ip), vehicle: water) was 106 % of control. For the same compound, the T/C (dose: 0.4 mg/kg/injection, schedule: Q04DX003 (ip), vehicle: water) was 113 % of control.

`C[C@H]1CN1C1=CC(=O)C(N2C[C@@H]2C)=CC1=O` was tested, and the T/C (dose: 0.5 mg/kg/injection, schedule: Q01DX009 (ip), vehicle: saline with Tween-80) was 102 % of control, the T/C (dose: 1.0 mg/kg/injection, schedule: Q01DX009 (ip), vehicle: saline with Tween-80) was 106 % of control and the T/C (dose: 2.0 mg/kg/injection, schedule: Q01DX009 (ip), vehicle: Klucel (hydroxypropylcellulose) (HPC)) was 123 % of control. For the same compound, the T/C (dose: 4.0 mg/kg/injection, schedule: Q01DX009 (ip), vehicle: Klucel (hydroxypropylcellulose) (HPC)) was 115 % of control.

With `Cc1c(Cl)cccc1NC(=O)c1ccccc1Cl` the T/C [7] was 100 % of control, the T/C [8] was 93 % of control and the T/C [9] was 94 % of control.

`CCCCOC(=O)C(CC)(CC)C(=O)OCCCC` was tested, and the T/C [3] was 110 % of control, the T/C [4] was 113 % of control and the T/C (dose: 400.0 mg/kg/injection, schedule: Q01DX009 (ip), vehicle: saline) was 93 % of control.

`CCN=C=NCCCN(C)C` was tested, and the T/C (dose: 10.0 mg/kg/injection, schedule: Q01DX009 (ip), vehicle: saline) was 92 % of control, the T/C (dose: 20.0 mg/kg/injection, schedule: Q01DX009 (ip), vehicle: saline) was 92 % of control and the T/C (dose: 40.0 mg/kg/injection, schedule: Q01DX009 (ip), vehicle: saline) was 97 % of control. For the same compound, the T/C (dose: 80.0 mg/kg/injection, schedule: Q01DX009 (ip), vehicle: saline) was 94 % of control.
